Laboratory results: patent US20240092802A1, “MU-OPIOID RECEPTOR AGONISTS AND USES THEREFOR” (Kures, Inc., priority 2020, published 2024)
Values joined by “and” are separate entries in the source; they are usually repeats but may differ in a detail not shown here. Equal entries are not always repeated. Structures can show the parent of a compound that is named as a salt. Where two headings read alike, the source gives them in different places.

What was measured:
Mouse MOR = Mouse MOR (Mus musculus (Mouse), UniProt P42866); assay: BRET G protein activation assay, mouse MOR in transfected HEK-293T cells; type: cell-based; details: mean ± SEM
Description: (§1) Transfection. Human or mouse MOR cDNA was transfected alongside GαoB with RLuc8 inserted at position 91 (GαoB-RLuc8), Gβ1 (β1), and Gγ2 fused to the full-length mVenus at its N terminus (mVenus γ2) into HEK-293T cells (5×10^6 cells/plate) in 10-cm dishes using PEI (Polysciences Inc.; Warrington, PA) in a 1:1 ratio diluted in Opti-MEM (Life Technologies Corp.; Grand Island, NY) to assay for G protein activation as described previously (Rives, M.-L. et al. J. Biol. Chem. 2012, 287, 27050-4; Negri, A.; Rives, M.-L.; Caspers, M. J. et al. J. Chem. Inf. Model. 2013, 53, 521-526). Cells were maintained in the Dulbecco's Modified Eagle Medium (high glucose #11965; Life Technologies) supplemented with 10% FBS (Premium Select, Atlanta Biologicals; Atlanta, GA) and 100 U/mL penicillin and 100 μg/mL streptomycin (#15140, Life Technologies). After 24 hours the media was changed, and the experiment was performed 24 hours later (48 hours after transfection).
(§2) BRET. Transfected cells were dissociated and resuspended in phosphate-buffered saline (PBS). Approximately 200,000 cells/well were added to a black-framed, white well 96-well plate (#60050; Perkin Elmer; Waltham, MA). The microplate was centrifuged and the cells were resuspended in PBS. Then 5 μM of the luciferase substrate coelenterazine H was added to each well for 5 minutes. Following coelenterazine H addition, ligands were added and the BRET signal was measured at 5 minutes on a PHERAstar FS plate reader. Quantification of the BRET signal required calculating the ratio of the light emitted by the energy acceptor, mVenus (510-540 nm), over the light emitted by the energy donor, RLuc8 (485 nm). […] Dose response curves were fit using three-parameter logistics equation in GraphPad Prism 6.

Human MOR = Human MOR (Homo sapiens (Human), UniProt P35372); assay: BRET G protein activation assay, human MOR in transfected HEK-293T cells; type: cell-based
Description: as §1, §2

[1] = Pharmacokinetics and brain distribution after single intraperitoneal dose in male C57BL/6 mice; details: for MRT last: MRTlast
Protocol: For each compound, a group of twenty-four male mice were administered with a solution formulation of the drug in normal saline intraperitoneally at a dose of 10 mg/kg. Blood samples (approximately 60 μL) were collected under light isoflurane anesthesia from the retro orbital plexus at 0.08, 0.25, 0.5, 1, 2, 4, 8 and 24 hr. Plasma samples were separated by centrifugation of whole blood and stored below −70° C. until bioanalysis. Immediately after collection of blood, brain samples were collected from each mouse at 0.08, 0.25, 0.5, 1, 2, 4, 8 and 24 hr. Brain samples were homogenized using ice-cold phosphate buffer saline (pH 7.4) and homogenates were stored below −70° C. until analysis. Total homogenate volume was three times the tissue weight. All samples were processed for analysis by protein precipitation using acetonitrile (ACN) and analyzed with fit-for-purpose LC/MS/MS method (LLOQ—1.01 ng/mL in plasma and brain). Pharmacokinetic parameters were calculated using the non-compartmental analysis tool of Phoenix WinNonlin® (Version 6.3).

[2] = BRET G protein activation, HEK-293T, mean ± SEM, read-out: EC50 Human MOR
[3] = brain, i.p. 10 mg/kg, male C57BL/6 mice
[4] = i.p. 10 mg/kg, male C57BL/6 mice
[5] = male, C57BL/6, mouse, in vivo, ip, 10 mg/kg
[6] = male, C57BL/6, mouse, in vivo, ip, 10 mg/kg, brain, i.p. 10 mg/kg, male C57BL/6 mice
[7] = male, C57BL/6, mouse, in vivo, ip, 10 mg/kg, plasma, i.p. 10 mg/kg, male C57BL/6 mice

Human MOR, sequence (P35372 whole entry): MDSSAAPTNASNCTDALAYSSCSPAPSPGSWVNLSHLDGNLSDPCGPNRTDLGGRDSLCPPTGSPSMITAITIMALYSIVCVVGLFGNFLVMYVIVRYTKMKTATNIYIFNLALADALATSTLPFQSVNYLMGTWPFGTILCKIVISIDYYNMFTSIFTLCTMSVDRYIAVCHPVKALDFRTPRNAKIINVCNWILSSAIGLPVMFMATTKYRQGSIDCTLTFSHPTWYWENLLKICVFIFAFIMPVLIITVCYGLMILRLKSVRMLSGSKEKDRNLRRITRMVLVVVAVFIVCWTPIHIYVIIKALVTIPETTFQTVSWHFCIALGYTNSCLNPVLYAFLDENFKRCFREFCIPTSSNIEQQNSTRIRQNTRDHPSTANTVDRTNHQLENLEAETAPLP
Mouse MOR, sequence (P42866 whole entry, looked up, the tested form may be a part): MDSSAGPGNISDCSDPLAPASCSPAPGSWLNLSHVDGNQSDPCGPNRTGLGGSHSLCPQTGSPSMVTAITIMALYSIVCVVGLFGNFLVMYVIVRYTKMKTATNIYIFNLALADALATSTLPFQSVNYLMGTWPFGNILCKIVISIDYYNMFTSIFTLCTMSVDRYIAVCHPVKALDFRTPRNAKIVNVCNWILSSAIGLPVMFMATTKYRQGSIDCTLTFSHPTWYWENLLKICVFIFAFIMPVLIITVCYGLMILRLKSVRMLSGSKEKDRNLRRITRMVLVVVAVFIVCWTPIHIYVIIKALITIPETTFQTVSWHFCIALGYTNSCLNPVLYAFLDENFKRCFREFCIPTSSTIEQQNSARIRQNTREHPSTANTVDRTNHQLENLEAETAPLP

## CCOC(=O)CCCCNC1c2ccccc2N(C)S(=O)(=O)c2cc(Cl)ccc21 (stereo not drawn) [compound 17, Ethyl 5-((3-chloro-6-methyl-5,5-dioxido-6,11-dihydrodibenzo[c,f][1,2]thiazepin-11-yl)amino)pentanoate]
Mouse MOR
  EC50: < 10 µM
Human MOR; [2]
  EC50: < 10 µM

## CCCNC1c2ccccc2N(C)S(=O)(=O)c2cc(Cl)ccc21 (stereo not drawn) [compound 21, 3-Chloro-6-methyl-11-(propylamino)-6,11-dihydrodibenzo [c,f][1,2]thiazepine 5,5-dioxide]
Mouse MOR
  EC50: < 10 µM
Human MOR; [2]
  EC50: < 10 µM

## CN1c2ccccc2C(NCCCCC(=O)O)c2ccc(Cl)cc2S1(=O)=O (stereo not drawn) [compound 18, 5-((3-Chloro-6-methyl-5,5-dioxido-6,11-dihydrodibenzo[c,f][1,2]thiazepin-11-yl)amino)pentanoic acid]
Mouse MOR
  EC50: < 10 µM
Human MOR; [2]
  EC50: < 10 µM

## COCCCNC1c2ccccc2N(C)S(=O)(=O)c2cc(SC)ccc21 (stereo not drawn) [compound 44, 11-((3-Methoxypropyl)amino)-6-methyl-3-(methylthio)-6,11-dihydrodibenzo[c,f][1,2]thiazepine 5,5-dioxide]
Mouse MOR
  EC50: < 10 µM
Human MOR; [2]
  EC50: < 10 µM

## CCCCCNC1c2ccccc2N(C)S(=O)(=O)c2cc(Cl)ccc21 (stereo not drawn) [compound 19, 3-Chloro-6-methyl-11-(pentylamino)-6,11-dihydrodibenzo [c,f][1,2]thiazepine 5,5-dioxide]
Mouse MOR
  EC50: < 10 µM
Human MOR; [2]
  EC50: < 10 µM

## CNC1c2ccccc2N(C)S(=O)(=O)c2cc(Cl)ccc21 (stereo not drawn) [compound 20, 3-Chloro-6-methyl-11-(methylamino)-6,11-dihydrodibenzo [c,f][1,2]thiazepine 5,5-dioxide]
Mouse MOR
  EC50: < 10 µM
Human MOR; [2]
  EC50: < 10 µM

## CN1c2ccccc2C(NCCCCCCC(=O)O)c2ccc(I)cc2S1(=O)=O (stereo not drawn) [compound 84, 7-((3-Iodo-6-methyl-5,5-dioxido-6,11-dihydrodibenzo [c,f][1,2]thiazepin-11-yl)amino)heptanoic acid hydrochloride salt]
Human MOR
  EC50: 0.04 µM

## COCCNC1c2ccccc2N(C)S(=O)(=O)c2cc(Cl)ccc21 (stereo not drawn) [compound 42, 3-Chloro-11-((2-methoxyethyl)amino)-6-methyl-6,11-dihydrodibenzo [c,f][1,2]thiazepine 5,5-dioxide]
Human MOR; [2]
  EC50: < 10 µM

## CCCCCNC1c2ccccc2N(C)S(=O)(=O)c2ccccc21 (stereo not drawn) [compound 8, 6-Methyl-11-(pentylamino)-6,11-dihydrodibenzo[c,f][1,2]thiazepine 5,5-dioxide]
Mouse MOR
  EC50: < 10 µM
Human MOR; [2]
  EC50: < 10 µM

## CN1c2ccccc2C(NCCCCCCC(=O)NCCO)c2ccc(Cl)cc2S1(=O)=O (stereo not drawn) [compound 57, 7-((3-Chloro-6-methyl-5,5-dioxido-6,11-dihydrodibenzo [c,f][1,2]thiazepin-11-yl)amino)-N-(2-hydroxyethyl) heptanamide]
Human MOR; [2]
  EC50: < 10 µM

## CC(C)NC1c2ccccc2N(C)S(=O)(=O)c2cc(Cl)ccc21 (stereo not drawn) [compound 22, 3-Chloro-11-(isopropylamino)-6-methyl-6,11-dihydrodibenzo [c,f][1,2]thiazepine 5,5-dioxide]
Mouse MOR
  EC50: < 10 µM
Human MOR; [2]
  EC50: < 10 µM

## COCCCNC1c2ccccc2N(C)S(=O)(=O)c2cc(SC(C)C)ccc21 (stereo not drawn) [compound 63, 3-(Isopropylthio)-11-((3-methoxypropyl)amino)-6-methyl-6,11-dihydrodibenzo[c,f][1,2]thiazepine 5,5-dioxide]
Human MOR; [2]
  EC50: < 10 µM

## COCCOCCNC1c2ccccc2N(C)S(=O)(=O)c2cc(Cl)ccc21 (stereo not drawn) [compound 36, 3-Chloro-11-((2-(2-methoxyethoxy)ethyl)amino)-6-methyl-6,11-dihydrodibenzo[c,f][1,2]thiazepine 5,5-dioxide]
Human MOR; [2]
  EC50: < 10 µM

## CCSc1ccc2c(c1)S(=O)(=O)N(C)c1ccccc1C2NCCCOC (stereo not drawn) [compound 64, 3-(Ethylthio)-11-((3-methoxypropyl)amino)-6-methyl-6,11-dihydrodibenzo[c,f][1,2]thiazepine 5,5-dioxide]
Human MOR; [2]
  EC50: < 10 µM

## COCCCNC1c2ccccc2N(C)S(=O)(=O)c2cc(Cl)ccc21 (stereo not drawn) [compound 23, 3-Chloro-11-((3-methoxypropyl)amino)-6-methyl-6,11-dihydrodibenzo [c,f][1,2]thiazepine 5,5-dioxide]
[1]; [3]
  AUClast: 335.03 ng·h/g
  CL: 260.44 mL/min/kg
[1]; [4]
  half-life compared with tianeptine: much longer half-life
  systemic exposure (AUC) compared with tianeptine: higher systemic exposure (AUC)
[1]; [5]
  AUC(0-t): 3060 ng·h/mL
  Cmax: 1540 ng/mL and 378 ng/g
[1]; [6]
  MRT last: 1.27 h
  Tmax: 0.08 h
[1]; [7]
  MRT last: 2.29 h
  Tmax: 0.25 h
[1]; male, C57BL/6, mouse, in vivo, ip, 10 mg/kg, T1/2, brain, i.p. 10 mg/kg, male C57BL/6 mice
  half-life: 5.12 h
[1]; male, C57BL/6, mouse, in vivo, ip, 10 mg/kg, T1/2, plasma, i.p. 10 mg/kg, male C57BL/6 mice
  half-life: 3.93 h
[1]; plasma, i.p. 10 mg/kg, male C57BL/6 mice
  CL: 44.27 mL/min/kg

## CCCCCCCNC1c2ccccc2N(C)S(=O)(=O)c2cc(Cl)ccc21 (stereo not drawn) [compound 26, 3-Chloro-11-(heptylamino)-6-methyl-6,11-dihydrodibenzo [c,f][1,2]thiazepine 5,5-dioxide]
Human MOR; [2]
  EC50: < 10 µM
